System: MV-4-11 cells
Assay: Gene expression microarray analysis (Affymetrix PrimeView) and GSEA
Assay type: cell-based, human
Set-up: RFU PODN (11730768_x_at) / Fold change /veh PODN (11730768_x_at) / RFU LINC00158 (11744669_a_at) / Fold change /veh LINC00158 (11744669_a_at) / RFU DUSP10 (11751237_a_at) / Fold change /veh DUSP10 (11751237_a_at) / RFU ID3 (11757404_x_at) / Fold change /veh ID3 (11757404_x_at) / RFU PLEKHG5 (11737974_s_at) / Fold change /veh PLEKHG5 (11737974_s_at) / RFU LRRC4B (11730491_at) / Fold change /veh LRRC4B (11730491_at) / RFU GIMAP4 (11747438_a_at) / Fold change /veh GIMAP4 (11747438_a_at) / RFU KRT8 (11758183_x_at) / Fold change /veh KRT8 (11758183_x_at) / RFU CNN1 (11734310_a_at) / Fold change /veh CNN1 (11734310_a_at) / RFU VPS37D (11726825_at) / Fold change /veh VPS37D (11726825_at) / RFU C10orf10 (11716522_x_at) / Fold change /veh C10orf10 (11716522_x_at) / RFU KIR2DL2 /// KIR2DL4 /// KIR2DL5A /// KIR2DL5B /// KIR2DS1 /// KIR2DS2 /// KIR2DS3 /// KIR2DS4 /// KIR3DL3 /// KIR3DL3 /// KIR3DS1 (11738374_at) / Fold change /veh KIR2DL2 /// KIR2DL4 /// KIR2DL5A /// KIR2DL5B /// KIR2DS1 /// KIR2DS2 /// KIR2DS3 /// KIR2DS4 /// KIR3DL3 /// KIR3DL3 /// KIR3DS1 (11738374_at) / RFU C1QL1 (11718748_at) / Fold change /veh C1QL1 (11718748_at) / RFU TMPRSS4 (11747572_a_at) / Fold change /veh TMPRSS4 (11747572_a_at) / RFU HAMP (11756126_x_at) / Fold change /veh HAMP (11756126_x_at) / RFU RNFT2 (11725882_a_at) / Fold change /veh RNFT2 (11725882_a_at) / RFU NR4A2 (11747474_a_at) / Fold change /veh NR4A2 (11747474_a_at) / RFU ABCC12 (11746883_a_at) / Fold change /veh ABCC12 (11746883_a_at) / RFU TMEM136 (11760407_x_at) / Fold change /veh TMEM136 (11760407_x_at) / RFU CLDN22 /// WWC2 (11732394_at) / Fold change /veh CLDN22 /// WWC2 (11732394_at) / RFU HLA-DPB1 (11760878_x_at) / Fold change /veh HLA-DPB1 (11760878_x_at) / RFU SPINT1 (11716480_a_at) / Fold change /veh SPINT1 (11716480_a_at) / RFU GAP43 (11754022_s_at) / Fold change /veh GAP43 (11754022_s_at) / RFU A4GNT (11735810_at) / Fold change /veh A4GNT (11735810_at) / RFU PRB3 (11715151_x_at) / Fold change /veh PRB3 (11715151_x_at) / RFU TUBB4B (11761932_at) / Fold change /veh TUBB4B (11761932_at) / RFU CAPN14 (11732068_a_at) / Fold change /veh CAPN14 (11732068_a_at) / RFU TMCC2 (11721928_a_at) / Fold change /veh TMCC2 (11721928_a_at) / RFU IRGQ (11745062_a_at) / Fold change /veh IRGQ (11745062_a_at) / RFU FAM174B (11720279_a_at) / Fold change /veh FAM174B (11720279_a_at) / RFU TMPRSS4 (11748680_a_at) / Fold change /veh TMPRSS4 (11748680_a_at) / RFU FAM212B (11763350_a_at) / Fold change /veh FAM212B (11763350_a_at) / RFU PLEKHG5 (11743358_a_at) / Fold change /veh PLEKHG5 (11743358_a_at) / RFU ZSCAN30 (11745921_a_at) / Fold change /veh ZSCAN30 (11745921_a_at) / RFU CMKLR1 (11741424_a_at) / Fold change /veh CMKLR1 (11741424_a_at) / RFU LOC101060620 /// MAPK8IP1 (11723275_at) / Fold change /veh LOC101060620 /// MAPK8IP1 (11723275_at) / RFU SPTSSB (11747773_x_at) / Fold change /veh SPTSSB (11747773_x_at) / RFU PRSS12 (11739890_at) / Fold change /veh PRSS12 (11739890_at) / RFU BIN1 (11741810_x_at) / Fold change /veh BIN1 (11741810_x_at) / RFU WNT11 (11732464_a_at) / Fold change /veh WNT11 (11732464_a_at) / RFU C10orf10 (11716521_a_at) / Fold change /veh C10orf10 (11716521_a_at) / RFU C5orf56 (11738089_at) / Fold change /veh C5orf56 (11738089_at) / RFU CYB561 (11721691_x_at) / Fold change /veh CYB561 (11721691_x_at) / RFU ANKRD19P (11752326_a_at) / Fold change /veh ANKRD19P (11752326_a_at) / RFU OR2T12 /// OR2T33 /// OR2T8 (11738714_s_at) / Fold change /veh OR2T12 /// OR2T33 /// OR2T8 (11738714_s_at) / RFU VCAN (11748164_a_at) / Fold change /veh VCAN (11748164_a_at) / RFU JSRP1 (11732532_at) / Fold change /veh JSRP1 (11732532_at) / RFU KRTAP10-11 (11738290_x_at) / Fold change /veh KRTAP10-11 (11738290_x_at) / RFU MYO3A (11730013_a_at) / Fold change /veh MYO3A (11730013_a_at) / RFU EBF3 (11725865_a_at) / Fold change /veh EBF3 (11725865_a_at) / RFU CAMK2N1 (11719241_x_at) / Fold change /veh CAMK2N1 (11719241_x_at) / RFU C5orf56 (11738088_a_at) / Fold change /veh C5orf56 (11738088_a_at) / RFU OLFML3 (11715873_a_at) / Fold change /veh OLFML3 (11715873_a_at) / RFU LOC100653217 /// NTM (11731650_a_at) / Fold change /veh LOC100653217 /// NTM (11731650_a_at) / RFU MAPK11 (11762145_a_at) / Fold change /veh MAPK11 (11762145_a_at) / RFU FIZ1 (11724087_x_at) / Fold change /veh FIZ1 (11724087_x_at) / RFU OASL (11726364_x_at) / Fold change /veh OASL (11726364_x_at) / RFU SOX15 (11748057_x_at) / Fold change /veh SOX15 (11748057_x_at) / RFU CD79A (11719716_a_at) / Fold change /veh CD79A (11719716_a_at) / RFU HIST1H1D (11736915_at) / Fold change /veh HIST1H1D (11736915_at) / RFU CASKIN2 (11723855_a_at) / Fold change /veh CASKIN2 (11723855_a_at) / RFU LOC730098 (11760151_x_at) / Fold change /veh LOC730098 (11760151_x_at) / RFU OR4N2 (11742367_at) / Fold change /veh OR4N2 (11742367_at) / RFU PRRT2 (11749266_a_at) / Fold change /veh PRRT2 (11749266_a_at) / RFU SNX32 (11753110_a_at) / Fold change /veh SNX32 (11753110_a_at) / RFU CDHR5 (11726645_a_at) / Fold change /veh CDHR5 (11726645_a_at) / RFU RCAN1 (11760418_a_at) / Fold change /veh RCAN1 (11760418_a_at) / RFU FAM167A (11723789_a_at) / Fold change /veh FAM167A (11723789_a_at) / RFU FAM26E (11764081_at) / Fold change /veh FAM26E (11764081_at) / RFU ISYNA1 (11749810_s_at) / Fold change /veh ISYNA1 (11749810_s_at) / RFU ACY1 (11761880_at) / Fold change /veh ACY1 (11761880_at) / RFU 11764098_at / Fold change /veh 11764098_at / RFU SAMD14 (11745864_x_at) / Fold change /veh SAMD14 (11745864_x_at) / RFU NPB (11741838_a_at) / Fold change /veh NPB (11741838_a_at) / RFU TMPRSS6 (11731388_a_at) / Fold change /veh TMPRSS6 (11731388_a_at) / RFU KRTAP10-2 (11738614_at) / Fold change /veh KRTAP10-2 (11738614_at) / RFU ARHGAP8 /// PRR5-ARHGAP8 (11727945_x_at) / Fold change /veh ARHGAP8 /// PRR5-ARHGAP8 (11727945_x_at) / RFU KRTAP5-7 /// NADSYN1 (11734609_at) / Fold change /veh KRTAP5-7 /// NADSYN1 (11734609_at) / RFU RASL12 (11751679_a_at) / Fold change /veh RASL12 (11751679_a_at) / RFU CDKN2B (11736163_a_at) / Fold change /veh CDKN2B (11736163_a_at) / RFU PRF1 (11729649_at) / Fold change /veh PRF1 (11729649_at) / RFU, ZNF638 /// ZNF638-IT1 / Fold change vs veh, ZNF638 /// ZNF638-IT1 / RFU, PANK3 / Fold change vs veh, PANK3 / RFU, SH3YL1 / Fold change vs veh, SH3YL1 / RFU, ZEB2 / Fold change vs veh, ZEB2 / RFU, NRIP1 / Fold change vs veh, NRIP1 / RFU, PTTG1IP / Fold change vs veh, PTTG1IP / RFU, CAPN2 / Fold change vs veh, CAPN2 / RFU, MED14 / Fold change vs veh, MED14 / RFU, SNORA58 / Fold change vs veh, SNORA58 / RFU, C1orf63 / Fold change vs veh, C1orf63 / RFU, LRRFIP1 / Fold change vs veh, LRRFIP1 / RFU, NDUFAF7 / Fold change vs veh, NDUFAF7 / RFU, SLC12A2 / Fold change vs veh, SLC12A2 / RFU, IBTK / Fold change vs veh, IBTK / RFU, ESF1 / Fold change vs veh, ESF1 / Fold change vs veh, TMEM50B / RFU, TAOK1 / Fold change vs veh, TAOK1 / RFU, ACBD3 / Fold change vs veh, ACBD3 / RFU, TMA16 / Fold change vs veh, TMA16 / RFU, RWDD3 / Fold change vs veh, RWDD3 / RFU, BCAT1 / Fold change vs veh, BCAT1 / RFU, EDEM3 / Fold change vs veh, EDEM3 / RFU, TMEM33 / Fold change vs veh, TMEM33 / RFU, WDR75 / Fold change vs veh, WDR75 / RFU, AHCTF1 / Fold change vs veh, AHCTF1 / RFU, TFRC / Fold change vs veh, TFRC / RFU, ZDHHC17 / Fold change vs veh, ZDHHC17 / RFU, NOM1 / Fold change vs veh, NOM1 / RFU, ARL8B / Fold change vs veh, ARL8B / RFU, ZBTB11 / Fold change vs veh, ZBTB11 / RFU, TAMM41 / Fold change vs veh, TAMM41 / RFU, KIAA1704 /// LOC100996395 / Fold change vs veh, KIAA1704 /// LOC100996395 / RFU, ING1 / Fold change vs veh, ING1 / RFU, TRMT61B / Fold change vs veh, TRMT61B / RFU, FUBP3 / Fold change vs veh, FUBP3 / RFU, TP53 / Fold change vs veh, TP53 / RFU, TNKS2 / Fold change vs veh, TNKS2 / RFU, ZFP14 / Fold change vs veh, ZFP14 / RFU, ACTR2 / Fold change vs veh, ACTR2 / RFU, PPP3R1 / Fold change vs veh, PPP3R1 / RFU, PIK3R1 / Fold change vs veh, PIK3R1 / RFU, HNRNPA1 / Fold change vs veh, HNRNPA1 / RFU, RNF170 / Fold change vs veh, RNF170 / RFU, ZNF28 / Fold change vs veh, ZNF28 / RFU, RNGTT / Fold change vs veh, RNGTT / RFU, OGT / Fold change vs veh, OGT / RFU, BRD1 / Fold change vs veh, BRD1 / RFU, MARS / Fold change vs veh, MARS / RFU, ZNF655 / Fold change vs veh, ZNF655 / RFU, FAHD1 / Fold change vs veh, FAHD1 / RFU, BDP1 / Fold change vs veh, BDP1 / RFU, LRRCC1 / Fold change vs veh, LRRCC1 / RFU, ARID1A / Fold change vs veh, ARID1A / RFU, ZNF146 / Fold change vs veh, ZNF146 / RFU, ZNF330 / Fold change vs veh, ZNF330 / RFU, GPN3 / Fold change vs veh, GPN3 / RFU, C9orf123 / Fold change vs veh, C9orf123 / RFU, N4BP2L2 / Fold change vs veh, N4BP2L2 / RFU, ARFIP1 / Fold change vs veh, ARFIP1 / RFU, FAM179B / Fold change vs veh, FAM179B / RFU, BCL10 / Fold change vs veh, BCL10 / RFU, UHRF1BP1L / Fold change vs veh, UHRF1BP1L / RFU, BET1 / Fold change vs veh, BET1 / RFU, CNOT2 / Fold change vs veh, CNOT2 / RFU, ZNF268 / Fold change vs veh, ZNF268 / Fold change vs veh, ZNF507 / RFU, DGCR2 / Fold change vs veh, DGCR2 / RFU, WDSUB1 / Fold change vs veh, WDSUB1 / Fold change vs veh, HSP90B1 /// MIR3652 / RFU, ADSS / Fold change vs veh, ADSS / RFU, GK / Fold change vs veh, GK / RFU, ZNF148 / Fold change vs veh, ZNF148 / RFU, TAF9 / Fold change vs veh, TAF9 / RFU, SLC1A5 / Fold change vs veh, SLC1A5 / RFU, SLMO2 / Fold change vs veh, SLMO2 / RFU, ABCC4 / Fold change vs veh, ABCC4 / RFU, LOC101060439 /// RAP1B / Fold change vs veh, LOC101060439 /// RAP1B / RFU, RFX7 / Fold change vs veh, RFX7 / RFU, GTPBP10 / Fold change vs veh, GTPBP10 / RFU, CNEP1R1 / Fold change vs veh, CNEP1R1 / RFU, BIVM-ERCC5 /// ERCC5 / Fold change vs veh, BIVM-ERCC5 /// ERCC5 / RFU, ILF3 / Fold change vs veh, ILF3 / RFU 11762660_at / Fold change /veh 11762660_at / RFU VCAN (11757783_s_at) / Fold change /veh VCAN (11757783_s_at) / RFU DDX43 (11728927_at) / Fold change /veh DDX43 (11728927_at) / RFU KRT8 (11758188_x_at) / Fold change /veh KRT8 (11758188_x_at) / RFU NKD1 (11759106_at) / Fold change /veh NKD1 (11759106_at) / RFU SRD5A1 (11742802_a_at) / Fold change /veh SRD5A1 (11742802_a_at) / RFU TPSAB1 /// TPSB2 (11721975_s_at) / Fold change /veh TPSAB1 /// TPSB2 (11721975_s_at) / RFU GSTM3 (11746129_a_at) / Fold change /veh GSTM3 (11746129_a_at) / RFU IL23R (11737362_x_at) / Fold change /veh IL23R (11737362_x_at) / RFU TMEM51 (11727254_a_at) / Fold change /veh TMEM51 (11727254_a_at) / RFU PIWIL2 (11732686_x_at) / Fold change /veh PIWIL2 (11732686_x_at) / RFU ORM1 (11744905_x_at) / Fold change /veh ORM1 (11744905_x_at) / RFU CCDC152 (11743942_at) / Fold change /veh CCDC152 (11743942_at) / RFU ECM1 (11717891_a_at) / Fold change /veh ECM1 (11717891_a_at) / RFU IL23R (11748794_a_at) / Fold change /veh IL23R (11748794_a_at) / RFU TNFAIP8L3 (11732012_x_at) / Fold change /veh TNFAIP8L3 (11732012_x_at) / RFU MBOAT4 (11741988_at) / Fold change /veh MBOAT4 (11741988_at) / RFU 11764193_at / Fold change /veh 11764193_at / RFU TMEM53 (11763286_at) / Fold change /veh TMEM53 (11763286_at) / RFU MAGEB2 (11727129_at) / Fold change /veh MAGEB2 (11727129_at) / RFU TMEM200A (11744735_a_at) / Fold change /veh TMEM200A (11744735_a_at) / RFU CCDC152 (11751479_a_at) / Fold change /veh CCDC152 (11751479_a_at) / RFU FAM211A (11726209_a_at) / Fold change /veh FAM211A (11726209_a_at) / RFU RGS16 (11746705_a_at) / Fold change /veh RGS16 (11746705_a_at) / RFU VCAN (11755009_s_at) / Fold change /veh VCAN (11755009_s_at) / RFU RHOB (11743442_s_at) / Fold change /veh RHOB (11743442_s_at) / RFU RGS16 (11720943_a_at) / Fold change /veh RGS16 (11720943_a_at) / RFU RGS16 (11720944_at) / Fold change /veh RGS16 (11720944_at) / RFU, VPS4B / Fold change vs veh, VPS4B / RFU, CREB1 / Fold change vs veh, CREB1 / RFU, DNAJC13 / Fold change vs veh, DNAJC13 / RFU, GNAQ / Fold change vs veh, GNAQ / RFU, CDK5R1 / Fold change vs veh, CDK5R1 / RFU, ZRANB3 / Fold change vs veh, ZRANB3 / RFU, CUL4A / Fold change vs veh, CUL4A / RFU, CCNY / Fold change vs veh, CCNY / RFU, UFL1 / Fold change vs veh, UFL1 / RFU, COG3 / Fold change vs veh, COG3 / RFU, DIAPH2 / Fold change vs veh, DIAPH2 / RFU, SKA2 / Fold change vs veh, SKA2 / RFU, AFF3 / Fold change vs veh, AFF3 / RFU, LMF1 / Fold change vs veh, LMF1 / RFU, IPO11 / Fold change vs veh, IPO11 / RFU, DFFB / Fold change vs veh, DFFB / RFU, FOXP1 / Fold change vs veh, FOXP1 / RFU, CARD8 / Fold change vs veh, CARD8 / RFU, STRN3 / Fold change vs veh, STRN3 / RFU, ADK / Fold change vs veh, ADK / RFU, RASSF2 / Fold change vs veh, RASSF2 / RFU, WIPF1 / Fold change vs veh, WIPF1 / RFU, LARP1B / Fold change vs veh, LARP1B / RFU, RASA1 / Fold change vs veh, RASA1 / RFU, RB1 / Fold change vs veh, RB1 / RFU, PPFIA1 / Fold change vs veh, PPFIA1 / RFU, MAT2A / Fold change vs veh, MAT2A / RFU, CCT5 / Fold change vs veh, CCT5 / RFU, WDR92 / Fold change vs veh, WDR92 / RFU, CUX1 / Fold change vs veh, CUX1 / RFU, TTC7A / Fold change vs veh, TTC7A / RFU, TMEM135 / Fold change vs veh, TMEM135 / RFU, DEPTOR / Fold change vs veh, DEPTOR / RFU, CPM / Fold change vs veh, CPM / RFU, DNAJB6 / Fold change vs veh, DNAJB6 / RFU, CACNA2D3 / Fold change vs veh, CACNA2D3 / RFU, DTX4 / Fold change vs veh, DTX4 / RFU, TFCP2 / Fold change vs veh, TFCP2 / RFU, GMCL1 /// GMCL1P1 / Fold change vs veh, GMCL1 /// GMCL1P1 / RFU, AEBP2 / Fold change vs veh, AEBP2 / RFU, SNHG1 /// SNORD22 /// SNORD25 /// SNORD26 /// SNORD27 /// SNORD28 /// SNORD29 /// SNORD31 / Fold change vs veh, SNHG1 /// SNORD22 /// SNORD25 /// SNORD26 /// SNORD27 /// SNORD28 /// SNORD29 /// SNORD31 / Fold change (Aza/veh), C12orf56 (ProbeSet 11735607_a_at) / Fold change (ACY-1035/veh), C12orf56 (ProbeSet 11735607_a_at) / Fold change (Aza/veh), FGFR1OP (ProbeSet 11751329_s_at) / Fold change (ACY-1035/veh), FGFR1OP (ProbeSet 11751329_s_at) / Fold change (Aza/veh), VPS36 (ProbeSet 11739960_a_at) / Fold change (ACY-1035/veh), VPS36 (ProbeSet 11739960_a_at) / RFU SYPL1 (11715823_x_at) / Fold change /veh SYPL1 (11715823_x_at) / RFU IGFBP7 (11715501_s_at) / Fold change /veh IGFBP7 (11715501_s_at) / RFU REEP3 (11722064_at) / Fold change /veh REEP3 (11722064_at) / RFU IGLL1 (11728026_x_at) / Fold change /veh IGLL1 (11728026_x_at): dose or concentration left out as unconfirmed
Settings: MV-4-11 cells, 48 hours

Nc1ncn([C@@H]2O[C@H](CO)[C@@H](O)[C@H]2O)c(=O)n1 [azacitidine]
Fold change /veh ISYNA1 (11749810_s_at): 1.06

Source: PMC5218480 (PLoS ONE, 2017)
